From patent US20190276871A1, “Antimicrobial Cartridges and Processes for Antimicrobial Susceptibility Testing” (SeLux Diagnostics, Inc., priority 2017, published 2019)
Values after ≈ are worked out from the molar mass of the structure shown. Where two headings read alike, the source gives them in different places.

Columns and labels:
[1] = test system: clinical isolate of S aureus; assay: Broth microdilution reference method; type: cell-based; details: read-out: MICs obtained from the broth microdilution reference method
Protocol: The antibiotics shown are vancomycin, daptomycin, ceftaroline and levofloxacin, of which the MICs obtained from the broth microdilution reference method for this strain were 0.5, 0.25, 0.12, and 0.25 μg/ml, respectively. A clinical isolate of S aureus was used. Data represents the TRF signal in RFUs. Graphs in the top row contain data from 384-well plates. Graphs in the bottom row contain data from 96-well plates.

patient sample microbes [2] = assay: Standard 96-well AST assay plate, antimicrobial panel 1; type: cell-based
From the text: (§1) Shown in Table 5 and Table 6, MIC results for antimicrobial panels 1 and 2 respectively using a master cartridge format and a 384 well patient cartridge (column 3) agrees reliably with that run by standard 96 well AST assay plate (right hand column).

patient sample microbes [3] = assay: AST on 384-well patient cartridge panel made from Master Plate, antimicrobial panel 2; type: cell-based; set-up: unit not given here; details: master cartridge format
From the text: (§2) An assay setup comprises preparation of patient (target) cartridge by dispensing antimicrobials were from the master cartridge or intermediate serial dilution cartridges into one or more 384 reservoir patient cartridge, each antimicrobial in about 7 serial dilutions in triplicate, and covering the dynamic range of each antimicrobial that is known to be effective and therefore should be reported. The dilution range included the expected minimum inhibitory concentration (MIC) for each antimicrobial. But most importantly, dilution ranges, that is, antimicrobial concentrations beyond the range known to be effective are included in the patient cartridge as per the present invention.
(§3) The remaining reservoirs of the 384 well patient cartridge are utilized for setting up test controls: a no-antimicrobial control (negative control) was included for each antimicrobial compound; and a positive control was included for each antimicrobial set, where a microorganism that is not susceptible to the antimicrobial was added to the well. Each control set was also dispensed at least in duplicate per 384 well cartridge. Additional test controls may be included as deemed necessary by one of skill in the art. Equal amount of a patient sample was dispensed to each of the wells in the cartridge, except in the wells designated for no-sample control, if included. The patient cartridge was ready for determination of susceptibility of microbes from the patient sample to the twelve antimicrobials at the range of concentrations applied, simultaneously. Multiple such plates can be set up in parallel for testing samples from multiple patients, each patient sample per plate. An AST assay was performed on the prepared patient cartridges.
as §1

patient sample microbes [4] = assay: Standard 96-well AST assay plate, antimicrobial panel 2; type: cell-based; set-up: unit not given here
From the text: as §1

patient sample microbes [5] = assay: AST on 384-well patient cartridge panel made from Master Plate, antimicrobial panel 1; type: cell-based; details: master cartridge format
From the text: as §2, §3, §1

[6] = MIC, antimicrobial panel 2; cited from earlier work
[7] = MIC, antimicrobial panel 1; cited from earlier work

Compound	MIC ([1]; clinical isolate of S aureus) [µg/mL]	MICs obtained from 96-well Antibiotic Panel (patient sample microbes [2])	MICs obtained from panel made from Master Plate (patient sample microbes [3])	MICs obtained from 96-well Antibiotic Panel (patient sample microbes [4])	MICs obtained from panel made from Master Plate (patient sample microbes [5])	Quality Control Range [6]	Quality Control Range [7]	MIC [1] [µg/mL]
C[C@H]1COc2c(N3CCN(C)CC3)c(F)cc3c(=O)c(C(=O)O)cn1c23 [Levofloxacin]	0.25 (≈ 0.692 µM)	≤0.06	≤0.25	0.25	≤0.25			
CO[C@H]1/C=C/O[C@@]2(C)Oc3c(C)c(O)c4c(O)c(c(/C=N/N5CCN(C)CC5)c(O)c4c3C2=O)NC(=O)/C(C)=C\C=C\[C@H](C)[C@H](O)[C@@H](C)[C@@H](O)[C@@H](C)[C@H](OC(C)=O)[C@@H]1C [Rifampin]			≤0.25	0.004		0.004-0.015		
Cc1onc(-c2ccccc2)c1C(=O)N[C@@H]1C(=O)N2[C@@H]1SC(C)(C)[C@@H]2C(=O)O [Oxacillin]			0.5	0.5		0.12-0.5		
Piperacillin-tazobactam		4 µg/mL			≤ 1 µg/mL		1-4	
CN[C@H](CC(C)C)C(=O)N[C@H]1C(=O)N[C@@H](CC(N)=O)C(=O)N[C@H]2C(=O)N[C@H]3C(=O)N[C@H](C(=O)N[C@H](C(=O)O)c4cc(O)cc(O)c4-c4cc3ccc4O)[C@H](O)c3ccc(c(Cl)c3)Oc3cc2cc(c3O[C@@H]2O[C@H](CO)[C@@H](O)[C@H](O)[C@H]2O[C@H]2C[C@](C)(N)[C@H](O)[C@H](C)O2)Oc2ccc(cc2Cl)[C@H]1O [vancomycin]								0.5 (≈ 0.345 µM)
CC(C)(O/N=C(\C(=O)N[C@@H]1C(=O)N2C(C(=O)[O-])=C(C[n+]3ccccc3)CS[C@H]12)c1csc(N)n1)C(=O)O [Ceftazidime]		0.25	4	8	<1	4-16	0.06-0.5	
NC[C@H]1O[C@H](O[C@H]2[C@H](O)[C@@H](O[C@H]3O[C@H](CO)[C@@H](O)[C@H](N)[C@H]3O)[C@H](N)C[C@@H]2N)[C@H](N)C[C@@H]1O [Tobramycin]		1			0.5		0.25-1	
CO/N=C(\C(=O)N[C@@H]1C(=O)N2C(C(=O)[O-])=C(C[N+]3(C)CCCC3)CS[C@H]12)c1csc(N)n1 [Cefepime]		≤0.03			≤0.25		0.015-0.12	
NCC[C@H](O)C(=O)N[C@@H]1C[C@H](N)[C@@H](O[C@H]2O[C@H](CN)[C@@H](O)[C@H](O)[C@H]2O)[C@H](O)[C@H]1O[C@H]1O[C@H](CO)[C@@H](O)[C@H](N)[C@H]1O [Amikacin]		4			4		0.5-4	
CC1(C)S[C@@H]2[C@H](NC(=O)[C@H](N)c3ccccc3)C(=O)N2[C@H]1C(=O)O [Ampicillin]		8	1	1	4	0.5-2	2-8	
Ampicillin-Sulbactam		8 µg/mL			8 µg/mL		2-8	
Cn1nnc(-c2ccc(-c3ccc(N4C[C@H](CO)OC4=O)cc3F)cn2)n1 [Tedizolid]			0.25	0.5		0.25-1		
CO/N=C(\C(=O)N[C@@H]1C(=O)N2C(C(=O)O)=C(CSc3nc(=O)c(=O)[nH]n3C)CS[C@H]12)c1csc(N)n1 [Ceftriaxone]		≤0.12	2	4	≤0.125	1-8	0.03-0.12	
CC(=O)NC[C@H]1CN(c2ccc(N3CCOCC3)c(F)c2)C(=O)O1 [Linezolid]			2	2		1-4		
CCCCCCCCCC(=O)N[C@@H](Cc1c[nH]c2ccccc12)C(=O)N[C@H](CC(N)=O)C(=O)N[C@@H](CC(=O)O)C(=O)N[C@@H]1C(=O)NCC(=O)N[C@@H](CCCN)C(=O)N[C@@H](CC(=O)O)C(=O)N[C@H](C)C(=O)N[C@@H](CC(=O)O)C(=O)NCC(=O)N[C@H](CO)C(=O)N[C@@H]([C@H](C)CC(=O)O)C(=O)N[C@@H](CC(=O)c2ccccc2N)C(=O)O[C@@H]1C [daptomycin]	0.25 (≈ 0.154 µM)							
CCO/N=C(\C(=O)N[C@@H]1C(=O)N2C(C(=O)[O-])=C(Sc3nc(-c4cc[n+](C)cc4)cs3)CS[C@H]12)c1nsc(N)n1 [Ceftaroline]	0.12 (≈ 0.198 µM)		0.5	0.25				
